Read-outs that look alike come from different tables or passages of the source. Where no end group is shown, it is not given here.
How the values were obtained:
A. baumannii ATCC19606 = type: cell-based, Acinetobacter baumannii
Method: (§1) The antibacterial activity was evaluated using a standard MIC and MBC assay according to the National Committee for Clinical Laboratory Standards (NCCLS). MIC, MBC assay, and time-kill curves for the optimal peptide are provided in the Supplementary Materials.
(§2) Antimicrobial Activity Assays. The antibacterial activity of the peptides was determined using a method designed from the National Committee for Clinical Laboratory Standards (NCCLS) in the United States. All the strains used in the experiment are preserved in the laboratory. Briefly, log phase bacterial cells were diluted in MHB to a final concentration of 0.5-1x10^5 CFU/mL. Subsequently, 50μL of different concentrations of polypeptides were incubated with 50 μL of bacterial solution in sterile 96-well plates. In the minimum inhibitory concentration (MIC) assay, the plate was incubated at 37°C for 24 h, and the minimum inhibitory concentration (MIC) was determined by the absorbance at 492 nm of the microplate reader, and the minimum inhibitory concentration (MIC) inhibited 95% of bacteria grow. Determination of minimum bactericidal concentration: the plate was incubated at 37°C for 4 hours, 50 μL of the mixture was taken out of each well, diluted with an appropriate amount of PBS, smeared on the agar plate, and cultured overnight. Colonies were counted and the initial CFU/well was retrospectively calculated the following day. The lowest concentration of peptide that kills 99.9% of bacterial cells is the minimum bactericidal concentration (µM), Each test was replicated at least 3 times.

P. aeruginosa ATCC27853 = type: cell-based, Pseudomonas aeruginosa
Method: as §1, §2

[1] = tested on: E. coli K88 outer membrane; assay: Outer membrane integrity assay (NPN uptake); type: cell-based, Escherichia coli
Method: (§3) The outer and inner membrane integrity of bacterial cells treated with peptides was assessed using NPN and PI staining, respectively. Full details are provided in the Supplementary Materials.
Membrane permeabilization. Outer membrane integrity assay. The fluorescent probe NPN (Sigma-Aldrich, catalog no. 104043, ≥98%) was used to assess the outer membrane integrity of DiPGLa-H or mucin-treated E. coli K88. Briefly, log-medium E. coli K88 cells (OD600 = 0.2) were incubated with NPN (10 μM) in 5 mM HEPES buffer (pH 7.4, containing 5 mM glucose) for 30 min, and background fluorescence was recorded for subtraction. (excitation λ = 350 nm, emission λ = 420 nm) using a microplate reader (Varioskan Flash; Thermo, America). Subsequently, 100 μL of cell suspension was mixed with an equal volume of peptide solutions ranging in concentration from 4 to 64 μM in a sterile 96-well black plate. Fluorescence was recorded over time until no further increase in fluorescence was detected. Each test was performed independently, in duplicate, with three biological replicates, and results were converted to percent NPN uptake using the equation. NPN uptake (%) = (Fobs – Fbuffer)/ (Fpositive – Fbuffer) ×100%.
where Fobs is the observed fluorescence at a given peptide concentration, Fbuffer is the fluorescence of the buffer, and Fpositive is the fluorescence of NPN with microbial cells upon addition of 10 μg/mL polymyxin B (Sigma), which was used as a positive control because of its strong outer membrane-permeabilizing property. Untreated cell suspension served as the negative control.

[2] = tested on: E. coli K88 inner membrane; assay: Inner membrane integrity assay (PI); type: cell-based, Escherichia coli; details: 4 µM peptide, 30 min
Method: as §3
Inner membrane integrity assay. E. coli K88 cells were washed and resuspended in 0.01 mol l−1 of PBS (pH 7.4) to obtain an OD600 of 0.5, followed by the addition of 10 nmol l−1 of PI (Thermo Fisher Scientific, catalogue no. P1304MP) in the presence of […]. After incubation for 30 min, fluorescence was measured with the excitation wavelength at 535 nm and emission wavelength at 615 nm.

E. coli K88 [3] = assay: Heat, pH and salt sensitivity assay (MIC); type: cell-based, Escherichia coli; details: salts of Table S2
Method: (§4) To assess the stability of the peptides in physiological conditions, the peptides were incubated with E. coli K88 and S. aureus Mu50 in the presence of salts (150 mM NaCl, 4.5 mM KCl, 6 µM NH4Cl, 8 µM ZnCl2, 1 mM MgCl2, 4 µM FeCl3, and 2.5 µM CaCl2) in accordance with a previously reported protocol. To determine the thermal stability of the peptides, the peptides were pretreated at 100°C for 30 min, 60 min, and 90 min and cooled on ice for 10 min. The effect of acid and base on the antimicrobial activity was measured by treating the peptides for 2 h at pH of 2, 4, 10, and 12 in 10 mM sodium phosphate buffer adjusted with HCl or NaOH.

S. aureus Mu50 = type: cell-based, Staphylococcus aureus MRSA; details: for MIC S. aureus Mu50: Mu50, 2 h
Method: as §4

E. coli K88 [4] = assay: ROS generation (DCFH-DA); type: cell-based, Escherichia coli; details: 8 µM DiPGLa-H, 1 h 37°C, DCFH-DA 10 µM
Method: 2′,7′-Dichlorofluorescin diacetate (DCFH-DA) was used to determine the intracellular production of ROS as previously described. S. aureus Mu50 and E. coli K88 cells were diluted until OD600 = 0.4 and incubated in different concentrations of peptide at 37°C for 1 h. Next, the mixed solution was incubated with 10 µM DCFH-DA at 37°C for 1 h. The fluorescence (excitation wavelength = 488 nm, emission wavelength = 525 nm) was monitored with an Infinite 200 pro fluorescence spectrophotometer (Tecan, China). Each test was measured in triplicate and tested twice.

E. coli = details: one range printed for E. coli and S. aureus; cited from earlier work
Method: (§5) PGLa, an amphibian 21-residue cationic AMP, with a net charge of +4, was found in the skin of the toad Xenopus laevis ([6]). The minimum inhibitory concentration (MIC) of PGLa against Escherichia coli 25922 and S. aureus 25923 were 10–50 μg/mL and 50–100 μg/mL, respectively ([6]). […] The rep ...

S. aureus = details: one range printed for E. coli and S. aureus; cited from earlier work
Method: as §5

Substance: KIAKVALKALKIAKVALKAL-NH2 (C-terminus assumed) [DiPGLa-H]
- MBC A. baumannii ATCC19606 (A. baumannii ATCC19606; ATCC19606, 4 h): 4 µM
- MIC A. baumannii ATCC19606 (A. baumannii ATCC19606; ATCC19606, 24 h): 1 µM
- MBC P. aeruginosa ATCC27853 (P. aeruginosa ATCC27853; ATCC27853, 4 h): 2 µM
- MIC P. aeruginosa ATCC27853 (P. aeruginosa ATCC27853; ATCC27853, 24 h): 2 µM
- outer membrane permeability (NPN uptake) ([1]; 64 µM peptide, relative to 10 µg/mL polymyxin B = 100%): 184.4%
- membrane permeability ([1]; 1× MIC): approximately 80%
- inner membrane damage (PI) [2]: 267%
- elevation in MIC values by cationic ions, E. coli K88 (E. coli K88 [3]): 2–8 times
- MIC S. aureus Mu50 (S. aureus Mu50; pH 2): >32 µM
- MIC S. aureus Mu50 (S. aureus Mu50; pH 4): >32 µM
- MIC S. aureus Mu50 (S. aureus Mu50; pH 10): 32 µM
- MIC S. aureus Mu50 (S. aureus Mu50; pH 12): 32 µM
- increase in MIC after high temperature and pH treatments, S. aureus Mu50 (S. aureus Mu50; heat 100°C and pH 2-12 treatments): ≥ 4 fold
- increase in MIC values by cations, S. aureus Mu50 (S. aureus Mu50; salts of Table S2): more than fourfold increase
- elevation of ROS production vs untreated (E. coli K88 [4]): 11.3 fold
- fold higher TIall vs PGLa-B1: 64 fold
- MIC E. coli (E. coli): 0.75 to 1.5 µM
- MIC S. aureus (S. aureus): 0.75 to 1.5 µM
